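Tested at 5 concentrations; 48 h exposure; 96-well plates; endpoints linearly interpolated, else capped at highest concentration. GI50 is the concentration that inhibits growth by half.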 Active and inactive are the calls of the source. No stated cut-off is given here; in the data, active = GI50 up to about 1.1 µM and inactive = higher.
Columns and labels:
Test in all cases: inhibition of tumour cell growth, NCI panel, 48 h
HOP-62 = test system: HOP-62
OVCAR-8 = test system: OVCAR-8
TK-10 = test system: TK-10
HCT-15 = test system: HCT-15
NCI-H23 = test system: NCI-H23
MDA-MB-435 = test system: MDA-MB-435
COLO 205 = test system: COLO 205
PC-3 = test system: PC-3
HT-29 = test system: HT-29
NCI-H522 = test system: NCI-H522
RPMI-8226 = test system: RPMI-8226
SNB-75 = test system: SNB-75
786-0 = test system: 786-0
IGROV-1 = test system: IGROV-1
SK-MEL-2 = test system: SK-MEL-2
CCRF-CEM = test system: CCRF-CEM
Hs-578T = test system: Hs-578T
HCC 2998 = test system: HCC 2998
U-251 = test system: U-251

Structure (SMILES): Cc1ccc([N+](=O)[O-])cc1S(=O)(=O)Nc1ccc(C(=O)/C=C/c2ccccc2)cc1
- GI50 (HOP-62): 17.7 µM (inactive)
- GI50 (OVCAR-8): 23.2 µM (inactive)
- GI50 (TK-10): 31.3 µM (inactive)
- GI50 (HCT-15): 19.5 µM
- GI50 (NCI-H23): 16.7 µM (inactive)
- GI50 (MDA-MB-435): 19.6 µM (inactive)
- GI50 (COLO 205): 20.6 µM (inactive)
- GI50 (PC-3): 15.6 µM (inactive)
- GI50 (HT-29): 25.4 µM (inactive)
- GI50 (NCI-H522): 20.2 µM (inactive)
- GI50 (RPMI-8226): 11.5 µM (inactive)
- GI50 (SNB-75): 17.3 µM (inactive)
- GI50 (786-0): 16.7 µM (inactive)
- GI50 (IGROV-1): 18.7 µM (inactive)
- GI50 (SK-MEL-2): 19.1 µM (inactive)
- GI50 (CCRF-CEM): 20 µM (inactive)
- GI50 (Hs-578T): 50.6 µM (inactive)
- GI50 (HCC 2998): 17.7 µM (inactive)

Structure (SMILES): Nc1ccc(C(=O)Nn2c(-c3ccccc3)nc3ccccc3c2=O)cc1
- GI50 (HOP-62): > 100 µM (inactive)
- GI50 (OVCAR-8): > 100 µM (inactive)
- GI50 (TK-10): > 100 µM (inactive)
- GI50 (NCI-H23): > 100 µM (inactive)
- GI50 (U-251): > 100 µM (inactive)
- GI50 (MDA-MB-435): > 100 µM (inactive)
- GI50 (COLO 205): > 100 µM (inactive)
- GI50 (PC-3): > 100 µM (inactive)
- GI50 (HT-29): > 100 µM (inactive)
- GI50 (NCI-H522): > 100 µM (inactive)
- GI50 (RPMI-8226): > 100 µM (inactive)
- GI50 (SNB-75): 89.7 µM (inactive)
- GI50 (786-0): > 100 µM (inactive)
- GI50 (IGROV-1): > 100 µM (inactive)
- GI50 (CCRF-CEM): > 100 µM (inactive)
- GI50 (Hs-578T): 14.1 µM (inactive)
- GI50 (HCC 2998): > 100 µM (inactive)

Structure (SMILES): CC(C)(Br)C(Br)CCC1(C2CO2)CO1 (configuration not stated)
- GI50 (HOP-62): > 5 µM (inactive)
- GI50 (OVCAR-8): > 5 µM (inactive)
- GI50 (HCT-15): > 5 µM
- GI50 (NCI-H23): > 5 µM (inactive)
- GI50 (U-251): > 5 µM (inactive)
- GI50 (MDA-MB-435): > 5 µM (inactive)
- GI50 (COLO 205): > 5 µM (inactive)
- GI50 (PC-3): > 5 µM (inactive)
- GI50 (HT-29): > 5 µM (inactive)
- GI50 (NCI-H522): > 5 µM (inactive)
- GI50 (RPMI-8226): > 5 µM (inactive)
- GI50 (SNB-75): > 5 µM (inactive)
- GI50 (786-0): > 5 µM (inactive)
- GI50 (IGROV-1): > 5 µM (inactive)
- GI50 (CCRF-CEM): > 5 µM (inactive)
- GI50 (Hs-578T): > 5 µM (inactive)
- GI50 (HCC 2998): > 5 µM (inactive)

Structure (SMILES): CNn1c(C)n[nH]c1=O
- GI50 (HOP-62): > 100 µM (inactive)
- GI50 (OVCAR-8): > 100 µM (inactive)
- GI50 (TK-10): > 100 µM (inactive)
- GI50 (HCT-15): > 100 µM
- GI50 (NCI-H23): > 100 µM (inactive)
- GI50 (U-251): > 100 µM (inactive)
- GI50 (MDA-MB-435): > 100 µM (inactive)
- GI50 (COLO 205): > 100 µM (inactive)
- GI50 (PC-3): > 100 µM (inactive)
- GI50 (NCI-H522): > 100 µM (inactive)
- GI50 (RPMI-8226): > 100 µM (inactive)
- GI50 (SNB-75): 50.8 µM (inactive)
- GI50 (786-0): > 100 µM (inactive)
- GI50 (IGROV-1): > 100 µM (inactive)
- GI50 (SK-MEL-2): > 100 µM (inactive)
- GI50 (CCRF-CEM): > 100 µM (inactive)
- GI50 (Hs-578T): > 100 µM (inactive)
- GI50 (HCC 2998): > 100 µM (inactive)

Structure (SMILES): CCn1c(-c2ccc(C)cc2)cs/c1=N\C(P(=O)(O)O)P(=O)(O)O
- GI50 (HOP-62): > 100 µM (inactive)
- GI50 (OVCAR-8): > 100 µM (inactive)
- GI50 (TK-10): > 100 µM (inactive)
- GI50 (HCT-15): > 100 µM
- GI50 (NCI-H23): > 100 µM (inactive)
- GI50 (U-251): > 100 µM (inactive)
- GI50 (MDA-MB-435): > 100 µM (inactive)
- GI50 (COLO 205): > 100 µM (inactive)
- GI50 (PC-3): > 100 µM (inactive)
- GI50 (HT-29): > 100 µM (inactive)
- GI50 (NCI-H522): > 100 µM (inactive)
- GI50 (RPMI-8226): > 100 µM (inactive)
- GI50 (SNB-75): > 100 µM (inactive)
- GI50 (786-0): > 100 µM (inactive)
- GI50 (IGROV-1): > 100 µM (inactive)
- GI50 (CCRF-CEM): > 100 µM (inactive)
- GI50 (Hs-578T): > 100 µM (inactive)
- GI50 (HCC 2998): > 100 µM (inactive)

Structure (SMILES): COc1ccc(/C=C(\C#N)c2nc(-c3cc4ccccc4oc3=O)cs2)cc1
- GI50 (HOP-62): 15.2 µM (inactive)
- GI50 (OVCAR-8): 18.1 µM (inactive)
- GI50 (TK-10): 26.2 µM (inactive)
- GI50 (HCT-15): 51.6 µM
- GI50 (U-251): 13.5 µM (inactive)
- GI50 (MDA-MB-435): 37.8 µM (inactive)
- GI50 (COLO 205): 50.6 µM (inactive)
- GI50 (PC-3): 47.8 µM (inactive)
- GI50 (HT-29): 41.3 µM (inactive)
- GI50 (NCI-H522): 19.4 µM (inactive)
- GI50 (RPMI-8226): 42.9 µM (inactive)
- GI50 (SNB-75): 23.2 µM (inactive)
- GI50 (786-0): 19.3 µM (inactive)
- GI50 (IGROV-1): 22.2 µM (inactive)
- GI50 (SK-MEL-2): 33.3 µM (inactive)
- GI50 (CCRF-CEM): > 100 µM (inactive)
- GI50 (Hs-578T): 24.6 µM (inactive)
- GI50 (HCC 2998): 32.6 µM (inactive)

Structure (SMILES): COc1c2nc(CCl)n(C)c(=O)c2c(OC)c2c(=O)n(C)c(CCl)nc12
- GI50 (HOP-62): 1.87 µM (inactive)
- GI50 (OVCAR-8): 2.67 µM (inactive)
- GI50 (TK-10): 0.447 µM (active)
- GI50 (HCT-15): 1.48 µM
- GI50 (NCI-H23): 1.62 µM (inactive)
- GI50 (U-251): 1.64 µM (inactive)
- GI50 (MDA-MB-435): 2.11 µM (inactive)
- GI50 (COLO 205): 1.41 µM (inactive)
- GI50 (PC-3): 1.29 µM (inactive)
- GI50 (HT-29): 1.3 µM (inactive)
- GI50 (NCI-H522): 1.34 µM (inactive)
- GI50 (RPMI-8226): 0.303 µM (active)
- GI50 (SNB-75): 0.719 µM (active)
- GI50 (786-0): 0.904 µM (active)
- GI50 (IGROV-1): 1.94 µM (inactive)
- GI50 (CCRF-CEM): 0.354 µM (active)
- GI50 (Hs-578T): 4.27 µM (inactive)
- GI50 (HCC 2998): 1.34 µM (inactive)

Structure (SMILES): CCc1nc(N)nc(N)c1-c1ccc(Cl)c(Cl)c1 [ETOPRINE]
- GI50 (HOP-62): 2.93 µM (inactive)
- GI50 (TK-10): 36.1 µM (inactive)
- GI50 (HCT-15): 3.75 µM
- GI50 (NCI-H23): 2.74 µM (inactive)
- GI50 (U-251): 2.79 µM (inactive)
- GI50 (MDA-MB-435): 0.818 µM (active)
- GI50 (COLO 205): 8.43 µM (inactive)
- GI50 (PC-3): 34.5 µM (inactive)
- GI50 (HT-29): 0.879 µM (active)
- GI50 (NCI-H522): 5.81 µM (inactive)
- GI50 (RPMI-8226): 9.71 µM (inactive)
- GI50 (SNB-75): 35.1 µM (inactive)
- GI50 (786-0): 0.653 µM (active)
- GI50 (IGROV-1): 2.96 µM (inactive)
- GI50 (SK-MEL-2): 23.4 µM (inactive)
- GI50 (CCRF-CEM): > 100 µM (inactive)
- GI50 (Hs-578T): 43 µM (inactive)
- GI50 (HCC 2998): 12.4 µM (inactive)

From ChEMBL document CHEMBL1201862, “PubChem BioAssay data set” (2004)
